{"source": "paper PMC5808567", "about": "(Journal of medicinal chemistry, 2018)", "key": {"[1]": {"tested_on": "normal mobilized peripheral blood progenitor cells", "conditions": "cited from earlier work"}, "[2]": {"experiment": "Metal chelation by UV spectroscopy, Fe3+", "assay_type": "physicochemical", "conditions": "100 µM E-3a, 10 mM ammonium acetate pH 7.0, anaerobic, metal 100 µM-5 mM"}, "[3]": {"tested_on": "HCT116 and MDA-MB-231 cell lines", "experiment": "Growth inhibition assay, both cancer cell lines", "assay_type": "cell-based", "conditions": "Homo sapiens, 72 h, read-out: growth inhibition IC50"}}, "data": [{"molecule": "O=C(N/N=C/c1c(O)ccc2ccccc12)c1ccccc1O", "note": "[E-3a, 2-hydroxy-N'-((2-hydroxynaphthalen-1-yl)methylene)benzohydrazide]", "values": [{"measurement": "cytotoxicity against normal cells", "setting": "[1]", "value": "little cytotoxicity"}, {"measurement": "chelation of Fe^3+", "setting": "[2]", "value": "does not chelate Fe^3+ ions"}]}, {"molecule": "Nc1ccn([C@@H]2O[C@H](CO)[C@@H](O)C2(F)F)c(=O)n1", "note": "[gemcitabine]", "values": [{"measurement": "IC50", "setting": "[3]", "value": "30 to 100", "unit": "nM"}]}]}
